Reference: ChEMBL document CHEMBL1201862, “PubChem BioAssay data set” (2004)
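All cell lines were grown in 96-well plates and treated with compound for 48 hours. GI50 marks 50% less growth.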 Activity calls are given as the source filed them. Rule as the data show it: active = GI50 up to about 1.1 µM and inactive = higher.

Columns and labels:
Test in all cases: NCI anticancer screen, dose series, 48 h
A498 = test system: A498
K562 = test system: K562
HCT-15 = test system: HCT-15
U-251 = test system: U-251
NCI/ADR-RES = test system: NCI/ADR-RES
Hs-578T = test system: Hs-578T
ACHN = test system: ACHN
EKVX = test system: EKVX
BT-549 = test system: BT-549
MCF7 = test system: MCF7
IGROV-1 = test system: IGROV-1
PC-3 = test system: PC-3
Malme-3M = test system: Malme-3M
MDA-MB-231 = test system: MDA-MB-231
MDA-N = test system: MDA-N
SF-268 = test system: SF-268
SR = test system: SR
A549 = test system: A549
UO-31 = test system: UO-31
SK-MEL-2 = test system: SK-MEL-2
COLO 205 = test system: COLO 205
HCT-116 = test system: HCT-116
RXF 393 = test system: RXF 393
DU-145 = test system: DU-145
TK-10 = test system: TK-10
HCC 2998 = test system: HCC 2998
UACC-257 = test system: UACC-257
NCI-H23 = test system: NCI-H23
SN12C = test system: SN12C
NCI-H226 = test system: NCI-H226
T47D = test system: T47D
MDA-MB-435 = test system: MDA-MB-435
M14 = test system: M14
OVCAR-4 = test system: OVCAR-4
MOLT-4 = test system: MOLT-4
CCRF-CEM = test system: CCRF-CEM
SW-620 = test system: SW-620
786-0 = test system: 786-0
CAKI-1 = test system: CAKI-1
SNB-19 = test system: SNB-19
HOP-92 = test system: HOP-92
HL-60 = test system: HL-60
RPMI-8226 = test system: RPMI-8226
NCI-H522 = test system: NCI-H522
SNB-75 = test system: SNB-75
HT-29 = test system: HT-29
SK-MEL-5 = test system: SK-MEL-5
SK-MEL-28 = test system: SK-MEL-28
SF-539 = test system: SF-539
OVCAR-5 = test system: OVCAR-5
OVCAR-8 = test system: OVCAR-8
UACC-62 = test system: UACC-62
KM12 = test system: KM12
NCI-H460 = test system: NCI-H460
LOX IMVI = test system: LOX IMVI
SK-OV-3 = test system: SK-OV-3
SF-295 = test system: SF-295
OVCAR-3 = test system: OVCAR-3
HOP-62 = test system: HOP-62

O=C1CSC2(CC(/C=C/c3cccs3)=NN2c2cccc(S(=O)(=O)O)c2)N1c1nc2ccccc2s1 (stereo not drawn)
GI50 (A498): 15.6 µM (inactive)
GI50 (K562): 49.4 µM (inactive)
GI50 (HCT-15): > 100 µM
GI50 (U-251): 65.6 µM (inactive)
GI50 (NCI/ADR-RES): > 100 µM (inactive)
GI50 (Hs-578T): > 100 µM (inactive)
GI50 (ACHN): 68.9 µM (inactive)
GI50 (EKVX): 52.6 µM (inactive)
GI50 (BT-549): 11.9 µM (inactive)
GI50 (MCF7): 54.1 µM (inactive)
GI50 (IGROV-1): 27.4 µM (inactive)
GI50 (PC-3): > 100 µM (inactive)
GI50 (Malme-3M): > 100 µM (inactive)
GI50 (MDA-MB-231): > 100 µM (inactive)
GI50 (MDA-N): > 100 µM (inactive)
GI50 (SF-268): > 100 µM (inactive)
GI50 (SR): 30.2 µM (inactive)
GI50 (A549): > 100 µM (inactive)
GI50 (UO-31): 83.6 µM (inactive)
GI50 (SK-MEL-2): > 100 µM (inactive)
GI50 (COLO 205): > 100 µM (inactive)
GI50 (HCT-116): > 100 µM (inactive)
GI50 (RXF 393): > 100 µM (inactive)
GI50 (DU-145): > 100 µM (inactive)
GI50 (TK-10): 62.1 µM (inactive)
GI50 (HCC 2998): > 100 µM (inactive)
GI50 (UACC-257): > 100 µM (inactive)
GI50 (NCI-H23): 42.7 µM (inactive)
GI50 (SN12C): > 100 µM (inactive)
GI50 (NCI-H226): 39.9 µM (inactive)
GI50 (T47D): 21 µM (inactive)
GI50 (MDA-MB-435): 72.4 µM (inactive)
GI50 (M14): > 100 µM (inactive)
GI50 (OVCAR-4): > 100 µM (inactive)
GI50 (MOLT-4): 35.7 µM (inactive)
GI50 (CCRF-CEM): 33 µM (inactive)
GI50 (SW-620): > 100 µM (inactive)
GI50 (786-0): 88.3 µM (inactive)
GI50 (CAKI-1): > 100 µM (inactive)
GI50 (SNB-19): > 100 µM (inactive)
GI50 (HOP-92): 41.2 µM (inactive)
GI50 (HL-60): > 100 µM (inactive)
GI50 (RPMI-8226): 31.1 µM (inactive)
GI50 (NCI-H522): 64.9 µM (inactive)
GI50 (SNB-75): > 100 µM (inactive)
GI50 (HT-29): > 100 µM (inactive)
GI50 (SK-MEL-5): > 100 µM (inactive)
GI50 (SK-MEL-28): > 100 µM (inactive)
GI50 (SF-539): > 100 µM (inactive)
GI50 (OVCAR-5): > 100 µM (inactive)
GI50 (OVCAR-8): > 100 µM (inactive)
GI50 (UACC-62): 49.4 µM (inactive)
GI50 (KM12): > 100 µM (inactive)
GI50 (NCI-H460): 67.5 µM (inactive)
GI50 (LOX IMVI): 48.4 µM (inactive)

COc1ccc(-n2nnc3c(C#N)c(C)c(-c4ccccc4)n3c2=O)cc1
GI50 (A498): 3.45 µM (inactive)
GI50 (HCT-15): 4.72 µM
GI50 (U-251): 11.3 µM (inactive)
GI50 (NCI/ADR-RES): 2.84 µM (inactive)
GI50 (Hs-578T): 4.58 µM (inactive)
GI50 (ACHN): 7.38 µM (inactive)
GI50 (EKVX): 2.84 µM (inactive)
GI50 (BT-549): 5.92 µM (inactive)
GI50 (MCF7): 3.8 µM (inactive)
GI50 (IGROV-1): 2.22 µM (inactive)
GI50 (PC-3): 1.82 µM (inactive)
GI50 (Malme-3M): 3.95 µM (inactive)
GI50 (MDA-MB-231): 10.3 µM (inactive)
GI50 (MDA-N): 0.413 µM (active)
GI50 (SF-268): 5.19 µM (inactive)
GI50 (SR): 1.96 µM (inactive)
GI50 (A549): 2.9 µM (inactive)
GI50 (UO-31): 4.33 µM (inactive)
GI50 (SK-OV-3): 2.29 µM (inactive)
GI50 (SK-MEL-2): 3.56 µM (inactive)
GI50 (COLO 205): 2.93 µM (inactive)
GI50 (HCT-116): 0.501 µM (active)
GI50 (RXF 393): 2.2 µM (inactive)
GI50 (DU-145): 1.62 µM (inactive)
GI50 (TK-10): > 43.2 µM (inactive)
GI50 (HCC 2998): 3.56 µM (inactive)
GI50 (UACC-257): > 47.4 µM (inactive)
GI50 (NCI-H23): 3.34 µM (inactive)
GI50 (SN12C): 4.34 µM (inactive)
GI50 (NCI-H226): 2.3 µM (inactive)
GI50 (SF-295): 2.24 µM (inactive)
GI50 (T47D): 1.76 µM (inactive)
GI50 (MDA-MB-435): 0.543 µM (active)
GI50 (M14): 1.4 µM (inactive)
GI50 (OVCAR-4): > 75.2 µM (inactive)
GI50 (MOLT-4): 0.455 µM (active)
GI50 (CCRF-CEM): 0.38 µM (active)
GI50 (786-0): 1.94 µM (inactive)
GI50 (OVCAR-3): 1.16 µM (inactive)
GI50 (SNB-19): 3.35 µM (inactive)
GI50 (HOP-92): > 92.7 µM (inactive)
GI50 (RPMI-8226): 1.99 µM (inactive)
GI50 (SNB-75): 3.2 µM (inactive)
GI50 (HT-29): 4.42 µM (inactive)
GI50 (SK-MEL-5): 2.81 µM (inactive)
GI50 (SK-MEL-28): 2.4 µM (inactive)
GI50 (SF-539): 2.04 µM (inactive)
GI50 (OVCAR-5): 3.33 µM (inactive)
GI50 (OVCAR-8): 4.92 µM (inactive)
GI50 (HOP-62): 4.04 µM (inactive)
GI50 (UACC-62): 4.41 µM (inactive)
GI50 (KM12): 2.71 µM (inactive)
GI50 (NCI-H460): 3.65 µM (inactive)
GI50 (LOX IMVI): 3.31 µM (inactive)

CCOC(=O)[C@@]1(C(C)=O)CC(C)=C(C)C[S@@+]1[O-]
GI50 (A498): > 100 µM (inactive)
GI50 (K562): > 100 µM (inactive)
GI50 (HCT-15): > 100 µM
GI50 (U-251): > 100 µM (inactive)
GI50 (NCI/ADR-RES): > 100 µM (inactive)
GI50 (Hs-578T): > 100 µM (inactive)
GI50 (ACHN): > 100 µM (inactive)
GI50 (EKVX): > 100 µM (inactive)
GI50 (BT-549): > 100 µM (inactive)
GI50 (MCF7): > 100 µM (inactive)
GI50 (IGROV-1): > 100 µM (inactive)
GI50 (PC-3): > 100 µM (inactive)
GI50 (Malme-3M): > 100 µM (inactive)
GI50 (MDA-MB-231): > 100 µM (inactive)
GI50 (MDA-N): > 100 µM (inactive)
GI50 (SF-268): > 100 µM (inactive)
GI50 (SR): > 100 µM (inactive)
GI50 (A549): > 100 µM (inactive)
GI50 (UO-31): > 100 µM (inactive)
GI50 (SK-OV-3): > 100 µM (inactive)
GI50 (SK-MEL-2): > 100 µM (inactive)
GI50 (COLO 205): > 100 µM (inactive)
GI50 (HCT-116): > 100 µM (inactive)
GI50 (RXF 393): > 100 µM (inactive)
GI50 (DU-145): > 100 µM (inactive)
GI50 (TK-10): > 100 µM (inactive)
GI50 (HCC 2998): > 100 µM (inactive)
GI50 (UACC-257): > 100 µM (inactive)
GI50 (NCI-H23): > 100 µM (inactive)
GI50 (SN12C): > 100 µM (inactive)
GI50 (NCI-H226): > 100 µM (inactive)
GI50 (SF-295): > 100 µM (inactive)
GI50 (T47D): > 100 µM (inactive)
GI50 (MDA-MB-435): > 100 µM (inactive)
GI50 (M14): > 100 µM (inactive)
GI50 (OVCAR-4): > 100 µM (inactive)
GI50 (MOLT-4): > 100 µM (inactive)
GI50 (SW-620): > 100 µM (inactive)
GI50 (786-0): > 100 µM (inactive)
GI50 (CAKI-1): > 100 µM (inactive)
GI50 (OVCAR-3): > 100 µM (inactive)
GI50 (SNB-19): > 100 µM (inactive)
GI50 (HOP-92): 50.2 µM (inactive)
GI50 (RPMI-8226): > 100 µM (inactive)
GI50 (NCI-H522): > 100 µM (inactive)
GI50 (SNB-75): > 100 µM (inactive)
GI50 (SK-MEL-28): > 100 µM (inactive)
GI50 (OVCAR-5): > 100 µM (inactive)
GI50 (OVCAR-8): > 100 µM (inactive)
GI50 (HOP-62): > 100 µM (inactive)
GI50 (UACC-62): > 100 µM (inactive)
GI50 (KM12): > 100 µM (inactive)
GI50 (NCI-H460): > 100 µM (inactive)
GI50 (LOX IMVI): > 100 µM (inactive)
